Test results published in ChEMBL document CHEMBL4680208, “Sulfone derivatives enter the cytoplasm of Candida albicans sessile cells” (Eur J Med Chem, 2020).
Converted amounts (≈) assume the structure as drawn. The source made the active and inactive calls. The rule behind the calls is not given here.

Legend:
[1] = system: Candida albicans; test: Antifungal activity against Candida albicans 90028 assessed as fungal growth inhibition at 16 ug/ml measured after 18 hrs by microdilution method relative to control; type: functional; conditions: read-out: GI
[2] = system: Candida albicans; test: Antifungal activity against Candida albicans 90028 assessed as fungal growth inhibition at 8 ug/ml measured after 18 hrs by microdilution method relative to control; type: functional; conditions: read-out: GI
[3] = system: Candida albicans; test: Antifungal activity against Candida albicans 90028 assessed as fungal growth inhibition at 4 ug/ml measured after 18 hrs by microdilution method relative to control; type: functional; conditions: read-out: GI
[4] = system: Candida albicans; test: Antifungal activity against Candida albicans 90028 assessed as fungal growth inhibition at 2 ug/ml measured after 18 hrs by microdilution method relative to control; type: functional; conditions: read-out: GI
[5] = system: Candida albicans; test: Antifungal activity against Candida albicans 90028 assessed as fungal growth inhibition at 1 ug/ml measured after 18 hrs by microdilution method relative to control; type: functional; conditions: read-out: GI
[6] = system: Candida albicans; test: Antifungal activity against Candida albicans 90028 assessed as fungal growth inhibition at 0.5 ug/ml measured after 18 hrs by microdilution method relative to control; type: functional; conditions: read-out: GI
[7] = system: Candida albicans; test: Antifungal activity against Candida albicans 90028 assessed as fungal growth inhibition at 0.25 ug/ml measured after 18 hrs by microdilution method relative to control; type: functional; conditions: read-out: GI
[8] = system: Candida albicans; test: Antifungal activity against Candida albicans 90028 assessed as fungal growth inhibition at 0.125 ug/ml measured after 18 hrs by microdilution method relative to control; type: functional; conditions: read-out: GI
[9] = system: Candida albicans; test: Antifungal activity against Candida albicans 90028 assessed as fungal growth inhibition at 0.0625 ug/ml measured after 18 hrs by microdilution method relative to control; type: functional; conditions: read-out: GI
[10] = system: Candida albicans; test: Antifungal activity against Candida albicans 90028 assessed as fungal growth inhibition at 0.0313 ug/ml measured after 18 hrs by microdilution method relative to control; type: functional; conditions: read-out: GI
[11] = system: Candida albicans; test: Antifungal activity against Candida albicans 90028 assessed as fungal growth inhibition at 16 ug/ml measured after 48 hrs by microdilution method relative to control; type: functional; conditions: read-out: GI
[12] = system: Candida albicans; test: Antifungal activity against Candida albicans 90028 assessed as fungal growth inhibition at 8 ug/ml measured after 48 hrs by microdilution method relative to control; type: functional; conditions: read-out: GI
[13] = system: Candida albicans; test: Antifungal activity against Candida albicans 90028 assessed as fungal growth inhibition at 4 ug/ml measured after 48 hrs by microdilution method relative to control; type: functional; conditions: read-out: GI
[14] = system: Candida albicans; test: Antifungal activity against Candida albicans 90028 assessed as fungal growth inhibition at 2 ug/ml measured after 48 hrs by microdilution method relative to control; type: functional; conditions: read-out: GI
[15] = system: Candida albicans; test: Antifungal activity against Candida albicans 90028 assessed as fungal growth inhibition at 1 ug/ml measured after 48 hrs by microdilution method relative to control; type: functional; conditions: read-out: GI
[16] = system: Candida albicans; test: Antifungal activity against Candida albicans 90028 assessed as fungal growth inhibition at 0.5 ug/ml measured after 48 hrs by microdilution method relative to control; type: functional; conditions: read-out: GI
[17] = system: Candida albicans; test: Antifungal activity against Candida albicans 90028 assessed as fungal growth inhibition at 0.25 ug/ml measured after 48 hrs by microdilution method relative to control; type: functional; conditions: read-out: GI
[18] = system: Candida albicans; test: Antifungal activity against Candida albicans 90028 assessed as fungal growth inhibition at 0.125 ug/ml measured after 48 hrs by microdilution method relative to control; type: functional; conditions: read-out: GI
[19] = system: Candida albicans; test: Antifungal activity against Candida albicans 90028 assessed as fungal growth inhibition at 0.0625 ug/ml measured after 48 hrs by microdilution method relative to control; type: functional; conditions: read-out: GI
[20] = system: Candida albicans; test: Antifungal activity against Candida albicans 90028 assessed as fungal growth inhibition at 0.0313 ug/ml measured after 48 hrs by microdilution method relative to control; type: functional; conditions: read-out: GI
[21] = system: Candida albicans; test: Antifungal activity against Candida albicans 90028 assessed as fungal growth inhibition measured after 48 hrs by microdilution method; type: functional
[22] = system: Candida albicans; test: Fungicidal activity against Candida albicans 90028 preincubated for 48 hrs followed by plating on SD agar and measured after 48 hrs; type: functional; conditions: time 96 hrs
[23] = system: Vero; test: Cytotoxicity against African green monkey Vero cells at 0.25 to 512 ug/ml by XTT assay relative to control; type: cell-based; conditions: chlorocebus sabaeus, at 0.25 to 512 µg/mL, dose 0.25-512 µg/ml
[24] = Cytotoxicity against human MRC5 cells by CellTiter 96 Aqueous One Solution Reagent based assay; type: cell-based
[25] = Toxicity in Galleria mellonella larvae assessed as survival at 16 ug/ml relative to control; conditions: at 16 µg/mL
[26] = system: Candida albicans; test: Antifungal activity against Candida albicans 90028 infected in Galleria mellonella larvae at 16 ug/ml by H and E staining based histological analysis; type: functional, organism-based; conditions: dose 16.0 µg/ml
[27] = system: Candida albicans; test: Induction of plasma membrane disruption in Candida albicans assessed as accidental type cell death at 0.25 ug/ml measured after 18 hrs by Annexin V-FITC/propidium iodide staining based flow cytometry (reference value: 1.74 +/- 1.37%); conditions: dose 0.25 µg/ml
[28] = system: Candida albicans; test: Anti-adhesive activity against Candida albicans assessed as reduction in […] adhesion to human TR146 cells at 0.25 ug/ml incubated for 2 hrs prior to cell infection and measured after 2 hrs by colony counting method relative to control; type: functional; design: scale not given: the % may be the effect or the level left; conditions: dose 0.25 µg/ml; time 4 hrs
[29] = Induction of adhesive activity against Candida albicans assessed as increase in […] adhesion to human TR146 cells at 0.125 ug/ml incubated for 2 hrs prior to cell infection and measured after 2 hrs by colony counting method relative to control; type: cell-based; conditions: tr146, 2 h, dose 0.125 µg/ml
[30] = system: Candida albicans; test: Antibiofilm activity against Candida albicans 90028 assessed as cell killing at 256 ug/ml by XTT assay relative to control; type: functional; conditions: dose 256 µg/ml
[31] = system: Candida albicans; test: Antibiofilm activity against Candida albicans 90028 assessed as increasing in cell killing by XTT assay; type: functional
[32] = system: Vero; test: Cytotoxicity against African green monkey Vero cells at 0.25 to 16 ug/ml by XTT assay relative to control; type: cell-based; conditions: chlorocebus sabaeus, at 0.25 to 16 µg/mL, dose 0.25-16 µg/ml
[33] = Cytotoxicity against African green monkey Vero cells by XTT assay; type: cell-based; conditions: chlorocebus sabaeus
[34] = system: Candida albicans; test: Induction of plasma membrane disruption in Candida albicans assessed as accidental type cell death at 8 ug/ml measured after 18 hrs by Annexin V-FITC/propidium iodide staining based flow cytometry (reference value: 1.74 +/- 1.37%); conditions: dose 8.0 µg/ml
[35] = system: Candida albicans; test: Anti-adhesive activity against Candida albicans assessed as reduction in […] adhesion to human TR146 cells at 8 ug/ml incubated for 2 hrs prior to cell infection and measured after 2 hrs by colony counting method relative to control; type: functional; design: scale not given: the % may be the effect or the level left; conditions: dose 8 µg/ml; time 4 hrs
[36] = Induction of adhesive activity against Candida albicans assessed as increase in […] adhesion to human TR146 cells at 4 ug/ml incubated for 2 hrs prior to cell infection and measured after 2 hrs by colony counting method relative to control; type: cell-based; conditions: tr146, 4 h, dose 4 µg/ml

Compound	inhibition of growth at 16 µg/mL [1] [%]	inhibition of growth at 8 µg/mL [2] [%]	inhibition of growth at 4 µg/mL [3] [%]	inhibition of growth at 2 µg/mL [4] [%]	inhibition of growth at 1 µg/mL [5] [%]	inhibition of growth at 0.5 µg/mL [6] [%]	inhibition of growth at 0.25 µg/mL [7] [%]	inhibition of growth at 0.125 µg/mL [8] [%]	inhibition of growth at 0.0625 µg/mL [9] [%]	inhibition of growth at 0.0313 µg/mL [10] [%]	inhibition of growth at 16 µg/mL [11] [%]	inhibition of growth at 8 µg/mL [12] [%]	inhibition of growth at 4 µg/mL [13] [%]	inhibition of growth at 2 µg/mL [14] [%]	inhibition of growth at 1 µg/mL [15] [%]	inhibition of growth at 0.5 µg/mL [16] [%]	inhibition of growth at 0.25 µg/mL [17] [%]	inhibition of growth at 0.125 µg/mL [18] [%]	inhibition of growth at 0.0625 µg/mL [19] [%]	inhibition of growth at 0.0313 µg/mL [20] [%]	also measured
NNc1ccc(S(=O)(=O)C(F)(F)Cl)cc1[N+](=O)[O-]	100	100	100	100	99.9	99.9	98.8	98.4	97.6	93.8	100	100	100	99.7	98.2	98.9	98.4	98.1	95.8	94.2	MIC [21]: inactive; MFC [22]: 0.25 µg/mL (≈ 0.829 µM); Activity [23]: 93.43%; CC50 [24]: ≥ 16 µg/mL; survival [25]: 93%; Activity [26]: inactive; Activity [27]: 83.1%; Activity [28]: 5.88%; fold change (FC) [29]: 11.76; Activity [30]: 40%; CC50 [31]: ≤ 128 µg/mL
NNc1ccc(S(=O)(=O)C(F)(F)I)cc1[N+](=O)[O-]	100	100	100	100	100	99.7	100	73.7	100	88.2	100	100	74.9	72.8	72.9	70.1	69.5	22.9	15.5	22	MIC90 [21]: 8 µg/mL (≈ 20.4 µM); MFC [22]: 8 µg/mL (≈ 20.4 µM); Activity [32]: 12.54%; CC50 [33]: ≥ 32 µg/mL; CC50 [24]: ≥ 16 µg/mL; survival [25]: 100%; Activity [26]: inactive; Activity [34]: 74.8%; Activity [35]: 100%; fold change (FC) [36]: 13.78; Activity [30]: 40%; CC50 [31]: ≤ 64 µg/mL
